Experiments:
[1] = Long-term (6 h) measurement of brain uptake; assay type: in vivo, male CD-1 mice; details: mouse iv 125I-IRA, 6 h circulation; corrected for vascular space and degradation; estimated
Protocol: Substances that are enzymatically stable in blood and have slow clearance from the circulation can slowly enter the brain using the extracellular pathways.[63],[64] […] Albumin enters the brain by extracellular pathways,[70] and so we used albumin in two ways: we used ^99mTc-Alb circulating for 10 min to measure vascular space and ^99mTc-Alb circulating for 6 h to measure brain uptake by extracellular pathways. This is similar to the time-differential methodology developed by Poduslo and Curran to measure a substance’s vascular space and its uptake rate.[71] Following anesthetization, the jugular vein and right carotid artery were exposed. Mice were given an iv injection of 0.1% BSA-LR containing 1 × 10^6 cpm of ^125I-IRA or 5 × 10^5 cpm of ^99mTc-Alb, which circulated for 6 h. Mice receiving only the ^125I-IRA were given an injection of 5 × 10^5 cpm of ^99mTc-Alb 10 min prior to the end of the 6 h circulation time to act as a vascular marker. A separate set of mice received an iv injection of both 1 × 10^6 cpm of ^125I-IRA and 5 × 10^5 cpm of ^99mTc-Alb that circulated for 10 min. Following the 10 min or 6 h circulation time points, blood and brain were collected as described above. Thus, we had B/S ratios for ^99mTc-Alb measuring vascular space (10 min circulation time) and B/S ratios for ^99mTc-Alb measuring vascular space plus uptake by the extracellular pathways (6 h circulation time) which could be compared to the B/S ratios for the ^125I-IRAs after 10 min and 6 h of circulation.
Immediately after counting the radioactivity, the blood and brains from the 10 min and 6 h time points were processed as described in Section 2.5 for in vivo stability. For further comparison, data from the 1 h time point were taken from the original pharmacokinetic uptake study. The ^125I-IRA brain % acid precipitation (%AP) was divided by the ^125I-IRA serum %AP at each time point to calculate the %AP B/S ratio. This value was multiplied by the B/S ratio for each ^125I-IRA to correct for degradation over the 10 min, 1 h, or 6 h time periods. […]

[2] = reported; cited from earlier work
[3] = rat, 1 hour after iv, LC-MS/MS, mean, cited from earlier work
Protocol: This may reflect in part the sensitivity of our method using small amounts of radiolabeled peptides given the results of a recent study on semaglutide. That study used a novel liquid chromatography-tandem mass spectroscopy (LC-MS/MS) method to measure brain levels of semaglutide in adult male Sprague-Dawley rats injected iv 1 hour earlier with about […] of the unlabeled drug per animal. Detectable ...

[4] = cited from earlier work; for Brain influx within 1 h of iv injection (detection): mouse iv, radiolabeled IRA, earlier study
From the text: The unidirectional blood-to-brain influx rate (Ki) calculated from Figure 2c for all four IRAs tested is graphed with previously calculated Ki’s for other IRAs[50] in Figure 3 by rank.

[5] = IRAs of the earlier study; cited from earlier work
Protocol: The rank order of IRAs showing significant brain uptake 1 h after iv injection with respect to AUCs is similar, but not identical to the rank order of their Ki’s (see Figures 5b and 3b). Less similar is the rank order of IRAs for uptake into brain parenchyma defined as the percent reaching the brain that was in its parenchyma vs. its capillaries. The rank order of parenchymal uptake was specifically DA4-JC (89.7%) = albiglutide (BAF) (89.4%) > DA3-CH (86%) > exenatide (84.2%) > Peptide 17 (73.2%) > lixisenatide (66.8%) > dulaglutide (BAF) (61.8%) > DA5-CH (57.6%) > Peptide 21 (43.6%) > liraglu ...

Molecule	Amount present in brain at 6 h (AP corrected delta %Inj/g) [1]	half-lives in human serum [2]	semaglutide level in the cerebrum ([3]; cerebrum = cerebral cortex + striatum + amygdala + olfactory bulb)	semaglutide level in the cerebellum [3]	semaglutide level in the hypothalamus [3]	semaglutide level in the brain as a whole ([3]; no vascular wash-out)	Brain influx within 1 h of iv injection (detection) [4]	Percent reaching the brain that was in parenchyma vs. capillaries [5]	Blood to Brain Unidirectional Influx Rate (Ki) ([4]; mouse, in vivo, iv)
CC[C@H](C)[C@H](NC(=O)[C@H](Cc1ccccc1)NC(=O)[C@H](CCC(=O)O)NC(=O)[C@H](CCCCNC(=O)COCCOCCNC(=O)COCCOCCNC(=O)CC[C@H](NC(=O)CCCCCCCCCCCCCCCCC(=O)O)C(=O)O)NC(=O)[C@H](C)NC(=O)[C@H](C)NC(=O)[C@H](CCC(N)=O)NC(=O)CNC(=O)[C@H](CCC(=O)O)NC(=O)[C@H](CC(C)C)NC(=O)[C@H](Cc1ccc(O)cc1)NC(=O)[C@H](CO)NC(=O)[C@H](CO)NC(=O)[C@@H](NC(=O)[C@H](CC(=O)O)NC(=O)[C@H](CO)NC(=O)[C@@H](NC(=O)[C@H](Cc1ccccc1)NC(=O)[C@@H](NC(=O)CNC(=O)[C@H](CCC(=O)O)NC(=O)C(C)(C)NC(=O)[C@@H](N)Cc1cnc[nH]1)[C@@H](C)O)[C@@H](C)O)C(C)C)C(=O)N[C@@H](C)C(=O)N[C@@H](Cc1c[nH]c2ccccc12)C(=O)N[C@@H](CC(C)C)C(=O)N[C@H](C(=O)N[C@@H](CCCNC(=N)N)C(=O)NCC(=O)N[C@@H](CCCNC(=N)N)C(=O)NCC(=O)O)C(C)C [Semaglutide]	0.022 %Inj/g	~ 160 h	7.7 ng/g	12.6 ng/g	27 ng/g	12.0 ng/g	did not detect brain influx		
CCCCCCCCCCCCCCCC(=O)N[C@@H](CCC(=O)NCCCC[C@H](NC(=O)[C@H](C)NC(=O)[C@H](C)NC(=O)[C@H](CCC(N)=O)NC(=O)CNC(=O)[C@H](CCC(=O)O)NC(=O)[C@H](CC(C)C)NC(=O)[C@H](Cc1ccc(O)cc1)NC(=O)[C@H](CO)NC(=O)[C@H](CO)NC(=O)[C@@H](NC(=O)[C@H](CC(=O)O)NC(=O)[C@H](CO)NC(=O)[C@@H](NC(=O)[C@H](Cc1ccccc1)NC(=O)[C@@H](NC(=O)CNC(=O)[C@H](CCC(=O)O)NC(=O)[C@H](C)NC(=O)[C@@H](N)Cc1cnc[nH]1)[C@@H](C)O)[C@@H](C)O)C(C)C)C(=O)N[C@@H](CCC(=O)O)C(=O)N[C@@H](Cc1ccccc1)C(=O)N[C@H](C(=O)N[C@@H](C)C(=O)N[C@@H](Cc1c[nH]c2ccccc12)C(=O)N[C@@H](CC(C)C)C(=O)N[C@H](C(=O)N[C@@H](CCCNC(=N)N)C(=O)NCC(=O)N[C@@H](CCCNC(=N)N)C(=O)NCC(=O)O)C(C)C)[C@@H](C)CC)C(=O)O [Liraglutide]	0.03 %Inj/g	11 to 13 h					did not detect brain influx	28.7%	
lixisenatide: FDA-approved IRA tested in the earlier study (ref 50)								66.8%	0.3271 µL/g/min

From article PMC11583597, “Brain uptake pharmacokinetics of albiglutide, dulaglutide, tirzepatide, and DA5-CH in the search for new treatments of Alzheimer’s and Parkinson’s diseases” (Tissue Barriers, 2023)
